According to US20220119446A1, “BIOMARKERS AND TREATMENT OF NEURONAL INJURY AND NEURODEGENERATION” (Board of Supervisons of Louisiana State University and …, priority 2018, published 2022):
Entries after “also recorded” stand apart in the source; their conditions may differ. * marks the point of attachment. Boc = CC(C)(C)OC(=O)*

Key:
rats subjected to MCAo = test: Transient middle cerebral artery occlusion (MCAo): behavioral tests, neurological score; assay type: in vivo, rat; settings: for neuronal damage / neuroprotection in stroke model (tissue and behavioral): rat MCAo, summary statements
From the text: In certain embodiments, Male Sprague-Dawley rats (290-320 g; Charles River Lab, Wilmington, Mass., USA) are used for in vivo studies. For all surgical procedures, animals can be fasted and anesthesia can be induced with 3.5% isoflurane and 70% nitrous oxide and 30% oxygen. Animals can be orotracheally intubated; given atropine for secretions, pancuronium for immobilization; ventilated mechanically on a humidified mixture of 70% nitrous oxide, 1.0-1.5% isoflurane and a balance of oxygen. A femoral artery and vein can be catheterized for continuous blood pressure monitoring and periodic blood sampling for arterial gases and pH. PCO2 can be maintained at 35-40 mm Hg and P02 at 105-120 mm Hg by ventilator adjustments. Rectal temperature can be measured with a thermistor and maintained with a heating lamp at 37.0-37.5° C. Cranial (temporalis muscle) temperature also can be monitored and regulated with a separate warming lamp at 36.2-36.7° C.
The right MCA can be occluded for 2 h by intraluminal filament, as described previously (Belayev et al. 2011). Briefly, the right common carotid artery (CCA) and external carotid artery (ECA) can be exposed through midline neck incision, and then completely isolated from the surrounding nerves. The occipital branches of the ECA and pterygopalatine artery can be ligated. A 4-cm of 3-0 nylon filament, coated with poly-L-lysine can be advanced to the origin of MCA through the proximal ECA via internal carotid artery. The filament can be inserted 20 to 22 mm from the bifurcation of the CCA, according to the animal's body weight. The neck incision can then be closed, and the rats can be returned to their cages. […]
In certain embodiments, behavioral tests are conducted before, during MCAo (at 60 min), and then at 24 h, 48 h, 72 h, or 7 days after MCAo by an investigator blinded to the experimental groups. […] In embodiments, the severity of stroke injury is assessed by behavioral examination of each rat at 60 min after onset of MCAo. […]

Wnt5a = test: SYBR green real-time PCR of Wnt5a mRNA in human primary RPE (hpRPE) cells under UOS; assay type: cell-based
Experimental: ARPE-19 cells, can be plated and grown in DMEM/F-12 containing 10% FBS and 1× penicillin/streptomycin at 37° C., 5% CO2, 99% relative humidity for 24 h. […] 15-LOX-1 deficient cells can be maintained in the same medium as ARPE-19 with the addition of 500 μg/mL Geneticin (Life Technologies Corporation, Carlsbad, Calif.). Transfection can be performed in all cases using Lipofectamine 2000 (Life Technologies Corporation, Carlsbad, Calif.) following the manufacturer's recommendations. […] Experiments with transfection efficiency that yielded less than 80% can be discarded. For siRNA, we used 6 μl of Lipofectamine 2000 per 50 pmol of siRNA per mL of incubation medium, and, for plasmids, we used 6 μl of Lipofectamine 2000 per 2 μg of plasmid per mL of incubation medium. Cells can be incubated for 5 hours at 37° C., 5% CO2 and 99% relative humidity. […] When siRNA/plasmid co-transfection is required, siRNA and plasmid-carrying transfection mixes can be prepared separately and added one after the other in the same well. Oxidative stress treatments can be performed using 600 (ARPE-19) or 1600 (hRPE) μM H2O2, along with 10 ng/mL TNFα, for the required time indicated in each experiment. The treatment we used employed the low serum (0.5% serum) without hFGF. Treatment to induce uncompensated oxidative stress (UOS) can be performed after 8 hours of low-serum medium incubation unless specifically noted. […]

Row | Compound | neuronal damage / neuroprotection in stroke model (tissue and behavioral) (rats subjected to MCAo) | neuronal damage / neuroprotection in stroke model (tissue and behavioral) (rats subjected to MCAo; listed as BOX5) | neurological score (total, tactile and proprioceptive placing) (rats subjected to MCAo; rat, 2 h MCAo, IV 1 h later, DHA 5 mg/kg or Box5 (1 mg/kg; 400 μg), days 1, 2, 3, 7, versus saline) | Wnt5a transcription (mRNA) (Wnt5a; hpRPE cells, UOS 1,600 μM H2O2 and 10 ng/ml TNFα, 6 hours) | increase of Wnt5a expression on cRel silencing (Wnt5a; hpRPE, UOS plus NPD1, 12-fold in control, 8-fold in UOS) [fold]
1 | t-Boc-NH-Met-Asp-Gly-Cys-Glu-Leu-CO2H (Boc-MDGCEL-OH) [Box5] | significantly decreased; also recorded: beneficious at the behavioral level as well as in the reduction of stroke damage; also recorded: protection at the neurological/behavioral level as well as by reduction of stroke damage | remarkable neuroprotection | remarkable similarity to that obtained by DHA treatment; also recorded: improvement in neurological score; also recorded: resembling DHA treatment; also recorded: neurological protection remarkable similar to that obtained by DHA treatment |  | 
2 | CC/C=C\C[C@H](O)\C=C/C=C/C=C/[C@H](O)C/C=C\C/C=C\CCC(=O)O [NPD1, 10R,17S-dihydroxy-docosa-4Z,7Z,11E,13E,15Z,19Z-hexaenoic acid] |  |  |  | down regulated Wnt5a transcription; also recorded: decreased Wnt5a expression | 4
